Experimental data: PMC8632718, “Novel Assay Platform to Evaluate Intracellular Killing of Mycobacterium tuberculosis: In Vitro and In Vivo Validation” (Frontiers in Immunology, 2021)
In brackets after ≈: the same amount, converted by molar mass. Like-named read-outs stand apart in the source and are kept apart here. Ends that are not written are not given here.

Tests used:
[1] = system: Mtb H37Rv-infected MonoMac-6 human monocytes; assay: Intracellular killing of Mycobacterium tuberculosis; format: cell-based
Mtb H37Rv = assay: In vitro antitubercular effect, broth dilution MIC; format: cell-based; details: Mycobacterium tuberculosis, 672 h, extracellular Mtb H37Rv, Sula semisynthetic medium pH 6.5, 37°C, 28 days, repeated at least two times
[2] = system: Mycobacterium tuberculosis H37Rv; assay: Slow progressing murine TB model (i.p. infection), CFU in organs; format: in vivo, BALB/c female mice; details: BALB/c mice, INH 20 mg/kg bw per os, twice a week for 5 weeks, 1 week after 10th treatment
MonoMac-6 cells = format: cell-based, human; details: 10 µM Cf-peptide, 2 h, LysoTracker, ImageJ JACoP on merged images
Experimental: Cellular uptake and localization were visualized by confocal laser scanning microscopy. MonoMac-6 cells were seeded 1 day prior to treatment into coverslips (thickness 1, Assistent, Karl Hecht GmbH, Sondheim vor der Rhön, Germany) containing a 24-well plate (Sarstedt, Nümbrecht, Germany) for microscopy studies at a density of 7.5 × 10^4 cells/well, in 1 ml complete DMEM medium. The following day, cells were treated with Cf-peptide at a concentration of 10 µM (diluted in serum-free DMEM medium) for 2 h. Lysosomes were stained by LysoTracker Deep Red (Invitrogen, Waltham, MA, USA) for 30 min, and nuclei were stained by Hoechst 33342 solution (Thermo Scientific, USA). After each step, cells were washed three times with serum-free medium, then cells were fixed by 4% paraformaldehyde for 15 min and mounted to microscopy slides with Mowiol 4-88 (Sigma, Budapest, Hungary). Imaging was performed by a Zeiss LSM-710 system (Carl Zeiss microscopy GmbH, Oberkochen, Germany) with a ×40/1.4 Plan-Apochromat oil immersion objective using lasers with the parameters: Cf peptides λex = 488 nm, λem = 541 nm, nuclei λex = 405 nm, λem = 467 nm (Hoechst 33342), lysosomes λex = 633 nm, λem = 720 nm (LysoTrackerTM Deep Red) or λex = 577 nm, λem = 590 nm (LysoTrackerTM Red DND-99) were used. Zeiss ZEN lite software (Carl Zeiss Microscopy GmbH, Jena, Germany) was used for image processing.
Parallel with flow cytometry measurements, confocal laser scanning microscopy images were also captured in order to assess qualitative information on intracellular localization. LysoTrackerTM Deep Red was used for lysosome and Hoechst 33342 for nuclear staining to distinguish subcellular localization of the Cf-peptide. […] Colocalization of Cf-peptide and LysoTracker may be subjectively identified by the cooccurrence, the simple spatial overlap which combined the contribution of both signals (green and red) when the images of each signal are superimposed (merged, see Supplementary Figure S3 ).
microscopy at the 10 µM Cf-peptide concentration (based on flow cytometry profile), and MonoMac6 cells were incubated for 2 hrs.
the visible differences among localization profiles of the Cf-peptides, we applied greyscale analysis of
the images and the evaluation was carried out on a representative peptide set.
were studied and the treatment, the staining and fixation process were carefully optimized to assess
Laser intensity values were identical in case of all Cf-peptides. ZEN 3.0 blue lite software
was used for image processing and grey scale values were extracted using NIH ImageJ software’s Plot

EBC-1 spheroids = assay: Penetration into EBC-1 3D spheroids (confocal line scan); format: cell-based, human; details: 10 µM, 3 h, confocal z-stack to 55 µm, line scan n = 16
Experimental: In this study, we have employed a modified method based on ([55]). Briefly, micromolds for casting 3D Petri dishes (MicroTissues, Sigma, 5 × 7 array) were filled with molten agarose (2% (w/v) in PBS). The gelled agarose dishes were equilibrated with serum-free DMEM (2 ml/2 h, 37°C). Cells were seeded after incubation (1.8 × 10^4 cell/µL in DMEM CM). Prior to seeding process, nuclei were stained with Hoechst 33342 solution (0.2 µM) for 30 min ( Figure 2 ). Based on our previous work ([55]), the nuclear stain could not successfully penetrate into deeper layers of the spheroids (mostly localized at the spheroid surface), and towards the center of the spheroids the Hoechst 33342 signal was gradually decreasing. Stained cells were incubated in 2 ml DMEM CM for 48 h while cell-to-cell adhesion drives the aggregation and formation of spheroids. To monitor the condition of the spheroids, bright-field images were captured (Olympus CX41). After 48 h of incubation, spheroids were washed two times with fresh ICM DMEM and were treated with the Cf-Dhvar4 peptide (10 µM/2 ml ICM DMEM for 3 h). […] Line scan analysis was performed by NIH ImageJ software, two spheroids were analyzed (eight scans per spheroid, n = 16 in total). […]
Next, we assessed the penetration ability of Cf-Dhvar4 peptide on spheroids formed from EBC-1 cells. […]

[3] = Analytical RP-HPLC retention time (correlates with overall hydrophobicity); format: physicochemical; set-up: Rt (retention time): unit not given here; details: chromatographic measure of hydrophobicity; Waters Acquity UPLC BEH C18 (1.7 µm, 150 × 2.1 mm), flow rate 0.3 ml/min, gradient 2% B 1 min, 2%–100% B 16 min; single peak or first of two 5(6)-Cf isomer peaks
Experimental: Purified peptides were analyzed by LC-MS using a Thermo Scientific Q Exactive Focus Hybrid Quadrupole-Orbitrap Mass Spectrometer. For the separation, a Waters Acquity UPLC BEH C18 (1.7 µm, 150 × 2.1 mm) column was used with a flow rate of 0.3 ml/min.
For INH conjugation, representative cell-penetrating (CPP) and antimicrobial peptides (AMP) were chosen. These cationic, amphiphilic peptides are favored in the transportation of various cargos due to their high internalization rate. The used peptide series contains well-known CPPs such as penetratin, transportan, and Tat, frequently studied AMPs such as magainin and buforin, and designed analogs such as Dhvar4, Crot(1-9,38-42), and CM15. Also, a receptor-binding tuftsin analog (OT20), which was reported as a macrophage-targeting peptide, was also applied. […] Mass spectra and RP-HPLC chromatograms are available at https://figshare.com/s/48a023a25068f7658adf, DOI: 10.6084/m9.figshare.16644901. […] To study the internalization rate and intracellular localization, fluorescently labeled analogs were also synthesized. Note that the retention time of Cf-peptide are somewhat higher than unlabeled analogs, and in some cases, two peaks were detected due to the isomeric distribution of 5(6)-Cf molecule.

[4] = system: CALU-1 monolayer / EBC-1 cells; format: in vitro ADME, human; details: Transwell, 0.4 µm polycarbonate, Cf-peptide apical 10 and 20 µM, 45 min, apical to basolateral; EBC-1 fluorescence read-out
Experimental: EBC-1 lung squamous carcinoma and CALU-1 human lung epidermoid carcinoma were seeded on 24-well plates with Transwell inserts (TW) [Nunc, Sigma polycarbonate microporous membrane, 0.4 µm pore size (growth area 0.412 cm^2)]. Before use, TW inserts were incubated with ICM. On day 1, 300 μl of CALU-1 suspension in complete DMEM medium (8.0 × 10^5 cells) was pipetted onto the surface of the TW apical chamber and 500 μl complete DMEM medium was added to the basolateral side. In order to avoid nonattached cells, after incubation at 37°C for 5–6 h, the apical medium was removed and replaced with fresh complete DMEM medium. […] On day 5, the medium was changed, then Cf-peptide was added to the CALU-1-containing apical side at 10 and 20 µM concentrations, and the system was incubated for 45 min or 3 h (37°C, 5% CO2). The TW chamber was removed after incubation. EBC-1 cells were studied using flow cytometry (BD LSR II).
EBC-1 cells were treated without the presence of the TW inserts as controls (on day 4 prior to treatment, EBC-1 cells (10^5 cells/well in complete DMEM). […]
Figure 7 The penetration ability of Cf-peptides was determined on Transwell bronchial interface, and the penetration rates were quantified by flow cytometry. […] The confluence of CALU-1 monolayer was monitored with CellTracker Green, and after development of stable green fluorescence, cells were imaged in situ. […]

EBC-1 cells = format: cell-based, human; details: 10 µM, 3 hrs, fixed, 30 profiles
Experimental: In addition to the internalization experiments, the surface morphology of INH-peptide-treated and fixed EBC-1 cells was also studied with atomic force microscopy (AFM) ( Supplementary Information 1.3 ). High-resolution imaging of the cell surfaces was performed with a Flex-Axiom AFM system (Nanosurf, Liestal, Switzerland).The representative images and surface roughness of the native and treated cells are shown in Supplementary Figure S2 .
1.3 Membrane integrity evaluation by atomic force microscopy (AFM) […]
High resolution imaging of the surfaces were performed with a Flex-Axiom AFM system (Nanosurf, Liestal, Switzerland) operating in dynamic mode utilizing soft-tapping cantilevers (Tap150-G, BudgetSensors) with nominal force constant of 5 N/m. The recorded images were evaluated with the Gwyddion software. […]
Two cut-off frequencies were chosen with real-space wavelengths of 1 μm and 200 nm. […] Figure 2D,E,F. Scale dependent surface roughness of the cells was determined according to Antonio et al. Mean Rq values are somewhat higher in the peptide and conjugate treated cells, but […]
Supplementary Figure 2. […] The apex area of the cells was selected for imaging with a scan area of 5 μm × 5 μm (512 × 512 pixel resolution), where the cellular curvature has the smallest distortion effect on the recorded height profiles. […]
1.4. […] To quantify […]

NNC(=O)c1ccncc1 [INH, isoniazid]
intracellular killing efficacy (CFU) ([1]; 5, 10, 50 µM, treated two times for 3 + 3 days, SDS lysis, CFU on Löwenstein-Jensen after 4 weeks): not effective
MIC (Mtb H37Rv): 0.1 to 0.5 µM (≈ 0.0137 to 0.0686 µg/mL)
Mtb CFU in spleen ([2]; INH-Dhvar4 30 mg/kg bw s.c.): moderate decrease
Mtb CFU in lung [2]: Clearance of Mtb from the lung

Cf-RAGLQFPVGRVHRLLRK [Cf-Dhvar4, 5(6)-carboxyfluorescein-labeled Dhvar4]
Pearson's coefficient of colocalization with lysosomal staining (MonoMac-6 cells): 0.249
penetration ability on EBC-1 spheroids (EBC-1 spheroids): fair penetration ability

KRLFKKLLFSLRKY-NH2 [Dhvar4, reference compound]
Rt (retention time) [3]: 6.9
intracellular killing efficacy (CFU) [1]: not effective
penetration through CALU-1 monolayer and internalization into EBC-1 cells [4]: higher internalization rates
membrane integrity (AFM surface roughness Rq) (EBC-1 cells): membrane integrity maintained
